Experimental data from EP0091302A1, “Beta-lactam derivatives” (BEECHAM GROUP PLC, priority 1982, dated 1983).

Assays:
Assay in all cases: Antibacterial activity (MIC)
Format in all cases: cell-based
[1] = system: Ps. aeruginosa 10662; details: Pseudomonas aeruginosa
[2] = system: Ps aeruginosa Dalgleish 10-^2
[3] = system: E. coli ESS; details: Escherichia coli
[4] = system: E. coli JT4; details: Escherichia coli
[5] = system: N catarrhalis 1502
[6] = system: Ps. aeruginosa Dalgleish; details: Pseudomonas aeruginosa
[7] = Pseudomonas aeruginosa, Ps. aeruginosa 10^-2

Row | Structure (SMILES) | MIC [1] [µg/mL] | MIC ([2]; Ps aeruginosa Dalgleish 10-^2) [µg/mL] | MIC [3] [µg/mL] | MIC [4] [µg/mL] | MIC [5] [µg/mL] | MIC [2, 7] [µg/mL] | MIC [6] [µg/mL]
1 | CO[C@@]1(NC(=O)C(c2cc(N)c(O)c(O)c2)S(=O)(=O)O)C(=O)N2[C@@H](C(=O)O)C(C)(C)S[C@@H]21 (stereo partly drawn) [Example 1, Disodium 6,β-[R,S-2-(5-amino-3,4-dihydroxyphenyl)-2-sulphoacetamido]-6,α-methoxy penicillanate] | 50 | 50 | 5 | 25 | < 0.2 | – | –
2 | CO[C@@]1(NC(=O)C(c2cc(O)c(O)c([N+](=O)[O-])c2)S(=O)(=O)O)C(=O)N2[C@@H](C(=O)O)C(C)(C)S[C@@H]21 (stereo partly drawn) [Example 2, Disodium 6,β-[R,S-2-(3,4-dihydroxy-5-nitrophenyl)-2-sulphoacetamido]-6,α-methoxypenicillanate] | 5 | 1 | 0.2 | 2.5 | < 0.02 | – | –
3 | CO[C@@]1(NC(=O)[C@@H](c2cc(Cl)c(OC(C)=O)c(OC(C)=O)c2)S(=O)(=O)O)C(=O)N2[C@@H](C(=O)O)C(C)(C)S[C@@H]21 [Example 4v, Disodium 6,β-[R-2-(3-chloro-4,5-diacetoxyphenyl)-2-sulphoacetamido]-6,a-methoxypenicillanate] | 0.5 | – | 0.05 | 0.25 | < 0.01 | 0.25 | –
4 | CO[C@@]1(NC(=O)[C@@H](c2cc(O)c(O)c(Cl)c2)S(=O)(=O)O)C(=O)N2[C@@H](C(=O)O)C(C)(C)S[C@@H]21 [Example 4vi, Disodium 6,B-[R-2-(3-chloro-4,5-dihydroxyphenyl)-2-sulphoacetamido]-6,a-methoxypenicillanate] | 2.5 | – | 0.05 | 0.5 | < 0.02 | 0.5 | –
5 | CO[C@@]1(NC(=O)[C@@H](c2cc(OC(C)=O)c(OC(C)=O)cc2Cl)S(=O)(=O)O)C(=O)N2[C@@H](C(=O)O)C(C)(C)S[C@@H]21 [Example 5, Disodium 6,B-[R-2-(2-chloro-4,5-diacetoxyphenyl)-2-sulphoacetamido]-6,a-methoxypenicillanate] | 5 | – | 0.2 | 0.5 | < 0.02 | 1 | –
6 | CO[C@@]1(NC(=O)[C@@H](c2cc(OC(C)=O)c(OC(C)=O)cc2C)S(=O)(=O)O)C(=O)N2[C@@H](C(=O)O)C(C)(C)S[C@@H]21 [Example 6vi, Disodium 6,β-[R-2-(4,5-diacetoxy-2-methylphenyl)-2-sulphoacetamido]-6,a-methoxypenicillanate] | 16 | – | 4 | 16 | – | – | 4
7 | CO[C@@]1(NC(=O)[C@H](c2cc(OC(C)=O)c(OC(C)=O)cc2C)S(=O)(=O)O)C(=O)N2[C@@H](C(=O)O)C(C)(C)S[C@@H]21 [Example 6vii, Disodium 6,β-[S-2-(4,5-diacetoxy-2-methylphenyl)-2-sulphoacetamido]-6,a-methoxypenicillanate] | 128 | – | 32 | 64 | – | – | 128
8 | CO[C@@]1(NC(=O)[C@@H](c2cc(C)c(OC(C)=O)c(OC(C)=O)c2)S(=O)(=O)O)C(=O)N2[C@@H](C(=O)O)C(C)(C)S[C@@H]21 [Example 7, Disodium 6,β-[R-2-(4,5-diacetoxy-3-methylphenyl)-2-sulphoacetamido]-6,a-methoxypenicillanate] | 16 | – | 0.5 | 8 | – | – | 8
9 | CO[C@@]1(NC(=O)[C@@H](c2cc(OC(C)=O)c(OC(C)=O)c(Cl)c2Cl)S(=O)(=O)O)C(=O)N2[C@@H](C(=O)O)C(C)(C)S[C@@H]21 [Example 8, Disodium 6,β-[R-2-(4,5-diacetoxy-2,3-dichlorophenyl)-2-sulphoacetamido]-6,a-methoxypenicillanate] | 2 | – | 0.25 | 1 | – | – | 2
